One molecule from paper PMC9312958, “A Novel and Selective Dopamine Transporter Inhibitor, (S)-MK-26, Promotes Hippocampal Synaptic Plasticity and Restores Effort-Related Motivational Dysfunctions” (Biomolecules, 2022) can be followed below.

Values joined by “and” are separate entries in the source; they are usually repeats but may differ in a detail not shown here. Equal values may be shown once. Read-outs that look alike come from different tables or passages of the source.

The nature of data set [1]: Plasma and brain compound levels and pharmacokinetic parameters after i.p. administration. The data set is classed as in vivo, male Sprague–Dawley rats. To be noted: rat, 10 mg/kg i.p.; for concentration at 10 h: read-out: Clast. Here is the method: The bioavailability of (S)-MK-26 after intraperitoneal (i.p.) administration in male Sprague–Dawley rats (260–351 g) was outsourced to Evotec (Toulouse CEDEX, France, Study Number VDD10431). (S)-MK-26 at dose of 10 mg/kg of body weight was i.p. administered and blood samples and brains were collected at 0.083, 0.25, 0.5, 1, 3, 7, 10, and 24 h post-administration (3 rats per time point). Plasma and brain levels of (S)-MK-26 were measured by LC-MS by a standard validated protocol defined by the contractor, and the pharmacokinetic parameters were calculated from individual concentrations by WinNonLin7.0 (Phoenix64), a non-compartmental model.

Data set [2] relates to CA3-CA1 hippocampal synapses. The experiment in a line: Ex vivo hippocampal slice electrophysiology after i.p. treatment. The data set is classed as in vivo, rat. To be noted: 10 mg/kg i.p. Here is the method:
All electrophysiological experiments were conducted post mortem. Hippocampal slices (n = 12 animals/group) were prepared 1 h after the pharmacological treatments (animal experiments conducted under BMBWF-66.009/235/V/3b/2018 regulations). Animals underwent a brief sedative exposure to low CO2 inhalation and were immediately afterwards euthanized using a sharp-blade guillotining (DCAP-M, World Precision Instruments, Inc., Sarasota, FL, USA). The brains were removed and transferred to an ice-cold artificial Cerebrospinal Fluid (aCSF) solution containing (in mM): 125 NaCl, 2.5 KCl, 20 NaHCO3, 2.5 CaCl2, 1 MgCl2, 25 D-glucose, 1 NaH2PO4 (pH 7.4). Hippocampi were extracted and cut transversally with a tissue chopper (McIlwain TC752, Campden Instruments LTD., Loughborough, England) to obtain 400 µm-thick slices. Before electrophysiological assays, the slices rested for at least 1 h in a submerged recovery chamber (filled with aCSF) placed in a water bath with the temperature set at 30 °C. […]
Slice recordings were carried out in a submerged chamber receiving 3–4 mL/min of carbogenated aCSF (30 ± 2 °C). Field excitatory postsynaptic potentials (fEPSPs) were recorded using glass pipettes made of pulled capillary-glass obtained from Harvard Apparatus (Harvard Apparatus, GmbH; Hugo Sachs Elektronik, Germany). Evoked fEPSPs were recorded at the CA1 stratum-radiatum layer after electrically stimulating the collateral projections of Schaffer coming from the CA3 region as previously reported. […] Basal synaptic transmission was assessed by the generation of input/output (I/O) curves, resulting from the plotting of the field slope values (output; normalized to maximum) against the presented electrical stimulus intensity (input voltage). […] LTP was determined from the temporal progression of the fEPSP slope values (decaying phase) after LTP induction, normalized to the averaged slope values obtained before LTP-induction (base line values). The data for LTP from all slices were averaged for each animal (2–5 slices per rat were measured and averaged to yield one single value per animal). […]

The target of data set [3] is T1, hSERT (Homo sapiens, UniProt P31645).
T1 construct: expressed in transfected cells
T1 sequence (P31645 whole entry): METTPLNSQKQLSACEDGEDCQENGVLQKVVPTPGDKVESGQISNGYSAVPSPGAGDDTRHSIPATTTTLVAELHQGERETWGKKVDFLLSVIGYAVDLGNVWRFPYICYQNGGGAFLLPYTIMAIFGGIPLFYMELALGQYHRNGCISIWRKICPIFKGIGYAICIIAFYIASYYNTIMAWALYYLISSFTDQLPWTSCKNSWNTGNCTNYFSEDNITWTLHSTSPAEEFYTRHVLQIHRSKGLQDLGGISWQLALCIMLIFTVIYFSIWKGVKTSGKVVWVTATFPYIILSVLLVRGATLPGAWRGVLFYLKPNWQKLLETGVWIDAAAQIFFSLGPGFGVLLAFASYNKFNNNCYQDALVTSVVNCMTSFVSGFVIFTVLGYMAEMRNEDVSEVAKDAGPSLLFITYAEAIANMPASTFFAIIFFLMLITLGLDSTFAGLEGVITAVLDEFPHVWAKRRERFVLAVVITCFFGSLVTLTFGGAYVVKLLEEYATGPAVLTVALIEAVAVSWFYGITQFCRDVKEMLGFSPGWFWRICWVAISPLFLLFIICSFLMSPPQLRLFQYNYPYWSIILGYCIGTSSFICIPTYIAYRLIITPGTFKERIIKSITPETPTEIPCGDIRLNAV
Description: Uptake inhibition assay in HEK293 cells expressing hSERT. The data set is classed as cell-based. Here is the method: Human embryonic kidney 293 cells (HEK293 cells) were cultivated in Dulbecco’s Modified Eagle Medium (DMEM), containing 10% heat-inactivated fetal calf serum (FCS; 100 mL/L), streptomycin (100 μg/100 mL) and penicillin ([…]). Geneticin (50 μg/mL) was added to select cells stably expressing the human isoforms of dopamine, norepinephrine and serotonin transporter (hDAT, hNET, and hSERT, respectively) as described earlier. Cell lines were maintained in culture in humidified atmosphere (37 °C, 5% CO2), and passaged when reached 80–90% confluency. Cells expressing the desired transporter were seeded the day before the experiment (40,000 cells per well) or two days before the experiments (20,000 cells per well) onto poly-D-lysine (PDL)-coated 96-well plates.
Uptake inhibition experiments were carried out as reported previously. […] Thereafter, 200 μL of Ultima Gold^TM XR scintillation cocktail (PerkinElmer, MA, USA) was added, the plates were shaken and the radioactivity accumulated into the cells determined in a Wal-lac 1450 MicroBeta TriLux Liquid Scintillation Counter & Lumi (GMI, Ramsey, MN, USA). Non- specific tritiated substrate uptake was measured in the presence of 100 μM cocaine (for hDAT and hNET) or 10 μM paroxetine (for hSERT), and subtracted from the data. […]

Where [4] appears, read: male, Sprague-Dawley, ip, brain.
Where [5] appears, read: male, Sprague-Dawley, ip, plasma.

Take `[O-][S@@+](Cc1cncs1)C(c1cccc(Cl)c1)c1cccc(Cl)c1` [(S)-MK-26, (S)-5-(((B(3-chlorophenyl)methyl)sulphinyl)methyl)thiazole]: the “detectable up to (time)” value in data set [1] (brain and plasma) is listed as 10 h. Besides, in data set [1] (brain), the Tlast was 10.0 h and the “time of maximum mean brain concentration” value is given as 15 min. Also, the “maximum mean brain concentration” value in data set [1] (brain, at 15 min) turned out to be 634 ± 140 ng/g. Also, in data set [1] (male, Sprague-Dawley, brain and plasma, ip, read-out: mean brain to plasma concentration ratio), the Kp is 1.12 ± 0.19. Further, in data set [1] (setting [4]), the AUC(0-t) is 1960 ng·h/mL and 5.14 µM·h; the Cmax is 634 ng/mL and 1.67 µM; the Tmax came to 15 min; the concentration at 10 h stood at 19.2 nM. Further, in data set [1] (setting [5]), the exposure AUC(0-t) was 1710 ng·h/mL and 4.5 µM·h; the Cmax was 624 ng/mL and 1.64 µM; the time to peak (Tmax) is 30 min; the concentration at 10 h was found to be 15.7 nM. In addition, in data set [1] (plasma), the Tlast was determined as 10.0 h and the “time to peak mean plasma concentration” value was at most 30 min. In addition, in data set [1], the “adverse effects during the pharmacokinetic study” value is “No adverse effects were observed”. Also, the “basal synaptic transmission (I/O curves, fEPSP slopes)” value in data set [2] (old rats (~20 months), slices 1 h after injection) is recorded as “no effects”. Further, the “Post-Tetanic Potentiation (1 min after LTP induction)” value in data set [2] (old rats) is reported as “comparable to those from the Koliphor/control group”. Further, the “LTP responses (25 min after LTP induction)” value in data set [2] (old rats, p = 0.0133) was “significant enhancement in their LTP responses”. Also, the concentration for half-maximal inhibition (IC50) in data set [3] is above 1 mM.

Broadly, the AUC(0-t) is exposure summed from dosing to a finite time, without extrapolation to infinity. A high value points to high exposure. As a reminder, the Cmax is the highest concentration seen after dosing. What is called Tmax is the time from dosing to the highest level. The term IC50 denotes the midpoint of a concentration-inhibition curve. Low readings indicate greater potency, high ones weaker potency.
